Patent publication US12071488B2, “Method of sensitizing cancer cells to anti-cancer treatment” (TWO TO BIOTECH LTD., priority 2017, dated 2024)

Experiments:
MDA-MB-231 cells = experiment: Resazurin cell viability assay with APC1 and cisplatin or doxorubicin, MDA-MB-231 cells; type: cell-based, human; conditions: MDA-MB-231 pre-incubated with APC1 250 μg/ml; doxorubicin 0.3, 0.5, 1 μM, 48 hours; concentration dependent
Description: (§1) Cells treated with APC1 were seeded with APC1 at 250 μg/ml. The cells were incubated overnight.
(§2) Then the media was aspirated from the plates, and 100 μl of the treatment solutions were added to the appropriate wells, each treatment in triplicates. The cells were incubated for 48 hours.

MDA-MB-468 cells = experiment: Resazurin cell viability assay with APC1 and cisplatin or doxorubicin, MDA-MB-468 cells; type: cell-based, human; conditions: MDA-MB-468 pre-incubated with APC1 250 μg/ml; doxorubicin 0.3, 0.5, 1 μM, 48 hours; concentration dependent
Description: as §1, §2

HER2 receptor = experiment: FACS analysis of HER2 receptor expression on MDA-MB-231 cells; type: cell-based, human
Description: Cells (MDA-MB-231, MDA-MB-468 and BTS-149) were grown until 70-80% density was reached. Then the growth medium was discarded and the cells were treated with trypsin and medium as described above. After the cells were detached from the surface, the 20 ml cell suspension (namely cells in medium and Trypsin) were transferred into 50 ml conical tubes and centrifuged at 300 g for 10 min in 4° C. Next, the supernatant was discarded and 2 ml fresh medium were added to the cell pellet. Then the cells were fluidized and 13 ml medium was added to the tubes, thereby suspending the cells in a total of 15 ml medium. The cells were counted and seeded at 10.000-15,000 cells/well on chamber slide in 1 ml growing medium. The chamber slide seeded with cells was placed in the hood for 1 hour and then transferred to the incubator for an overnight incubation under the above conditions. The following day the medium was aspirated from the cell chamber slides and discarded and 1 ml cell treatment medium supplemented with APC1 (at a final concentration of 100 or 250 μg/ml) or control (medium only). Medium was added to each one of the wells (aliquots of APC1 were used in order to avoid repeated freeze-thaw cycle). The cells were then incubated for 24-144 hours. […]

[1] = test system: human TNBC tumors (MDA-MB-231); experiment: Relative tumor volume in nude mice inoculated with TNBC cells; type: in vivo; conditions: MDA-MB-231 tumors
From the text: To this end, mice were inoculated with TNBC cells as detailed above, briefly 32 nude mice were inoculated subcutaneously with TNBC cells (MDA-MB-231, 8×10^6 cells per mouse).

[2] = test system: pancreatic cancer cells BxPC3; experiment: Glutathione level in pancreatic cancer cells treated with APC1; type: cell-based, human; conditions: pancreatic cancer cells (FIG. 18B)
Description: Gluthatione Assay Kit (Sigma CS0260);
Cell lines (MDA-MB-231, MDA-MB-468) were grown in 75 cm^2 cell culture flask, reached 80-90% confluence. The cells were treated with APC1 (250 μg/ml, 2 times per week for 1 week).
Cells were washed twice with 10 ml PBS, PBS (5 ml) was added and the cells were collected by scrapping, centrifuged at 300G, 4° C. for 5 minutes, the supernatant was then discarded and the cells were treated with APC1 as indicated above. The values of the Glutathione Standard Solutions were used to determine the standard curve and the delta A412/min equivalent to 1 nmole of reduced glutathione per well was calculated according to manufacturer's instructions.
As detailed above, the ovarian cancer cells OV90 and OV3, the pancreatic cancer cells BxPC3 and Panel and the TNBC cancer cells MDA-MB-231 and MDA-MB-468 were treated with APC1 and then the relative glutathione levels in these cells was measured as detailed above.

EKGAAFSPIYPRRK (C terminal peptide of KTPAF50) [APC1, polypeptide consisting of the 14 C-terminal amino acid residues of the peptide KTPAF50]
sensitivity to doxorubicin (relative cell viability) (MDA-MB-231 cells): increased the sensitivity | sensitivity to doxorubicin (relative cell viability) (MDA-MB-468 cells): increased the sensitivity | dependence of HER2 expression on APC1 concentration (FACS) (HER2 receptor; 100 μg/ml vs 250 μg/ml APC1): concentration dependent | HER2 expression (FACS) (HER2 receptor; MDA-MB-231 cells, two doses of APC1 at 100 or 250 μg/ml, vs control cells): rise in HER2 expression | effect on tumor volume compared with doxorubicin-treated group ([1]; APC1 15 mg/kg three times a week): more pronounced | relative tumor volume ([1]; APC1 15 mg/kg, doxorubicin 3 mg/kg once a week, 5 weeks, control increased linearly): moderate increase | level of glutathione [2]: decreased
